Our source for the IC50 values is BindingDB's records for doi:10.7270/Q2V986KM (Burnham Center For Chemical Genomics, 2011).

In the test the target is T1, Carboxy-terminal domain RNA polymerase II polypeptide A small phosphatase 1 (Homo sapiens, UniProt Q9GZU7).
T1 sequence (Q9GZU7 whole entry): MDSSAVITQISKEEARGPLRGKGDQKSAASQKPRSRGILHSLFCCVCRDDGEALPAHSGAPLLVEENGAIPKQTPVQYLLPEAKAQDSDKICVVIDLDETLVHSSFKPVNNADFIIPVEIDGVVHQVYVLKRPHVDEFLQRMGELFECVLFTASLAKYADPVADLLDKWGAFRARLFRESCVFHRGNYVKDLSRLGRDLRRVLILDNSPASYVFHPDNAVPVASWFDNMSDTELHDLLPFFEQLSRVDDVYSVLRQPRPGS
In words: CTDSP1 inhibitors, concentration-response, biochemical, absorbance-based, ultra-high-throughput screen actives (AID 540297).
Broadly, the IC50 is the point on the concentration scale where inhibition reaches its midpoint. Read a high IC50 as weaker potency. `O=C(NN=C/C=C/c1ccc(Br)cc1)c1ccc2c(c1)OCO2` [Benzo[1,3]dioxole-5-carboxylic acid [3-(4-bromo-phenyl)-allylidene]-hydrazide] returned an IC50 of 4.92 µM. `O=C1Nc2ccc([N+](=O)[O-])cc2/C1=N/NC(=O)c1cc(-c2ccccc2Cl)nc2ccccc12` [2-(2-chlorophenyl)-N'-(2-keto-5-nitro-indol-3-yl)cinchoninohydrazide]: the IC50 amounted to 0.711 µM. With `O=C(NN=C/C(Cl)=C/c1ccccc1)c1ccc2c(c1)OCO2` [SMR001240783], it took 8.6 µM to reach half-maximal inhibition (IC50). This IC50 lies about 12-fold higher than the previous one. In turn, `CC(N=Nc1ccc(Cl)c(C(=O)O)c1)c1ccc[nH]1` (stereo unspecified) [2-chloro-5-[2-[(1Z)-1-pyrrol-2-ylideneethyl]hydrazinyl]benzoic acid] yielded a concentration for half-maximal inhibition (IC50) of 4.28 µM. With `CCOc1cc(CN=Nc2nc(O)c(CC(=O)O)s2)ccc1OCc1ccccc1Cl` the figure was 4.28 µM. Consider `Cc1ccc(-n2[nH]c(C)c(CN=Nc3ccc([N+](=O)[O-])cc3[N+](=O)[O-])c2=O)cc1` [SMR000171521], for which the IC50 worked out at 6.07 µM. The compound `O=C1C=C(O)/C(=C/NN2C(=O)C3C(C2=O)C2C=CC3C23CC3)C=C1[N+](=O)[O-]` (stereo unspecified) [MLS000705206] returned an IC50 of 4.9 µM. With `O=[N+]([O-])c1cccc(-c2csc(N=NCc3cccc(O)c3)n2)c1` [3-[[[4-(3-nitrophenyl)-1,3-thiazol-2-yl]hydrazinylidene]methyl]phenol], the IC50 came to 10.8 µM. With `Cc1[nH][nH]c(=O)c1CCC(=O)NN=Cc1ccco1` the figure was over 80 µM. `O=C(NN=C/C=C/c1ccccc1)c1cc2c(ccc3ccccc32)o1` [N-[[(E)-3-phenylprop-2-enylidene]amino]-2-benzo[e]benzofurancarboxamide] showed an IC50 of 1.72 µM. With `Cc1ccc(C(=O)N[n+]2cc(O)[c-](-c3nc(-c4cccc([N+](=O)[O-])c4)cs3)c2N)cc1` [MLS000391743], the IC50 is 4.06 µM.

With `CC(=NNC(=O)c1cc(-c2cccc([N+](=O)[O-])c2)n[nH]1)C1C=CC=CC1=O` (stereo unspecified) [3-(3-nitrophenyl)-N'-[(1E)-1-(6-oxo-1-cyclohexa-2,4-dienylidene)ethyl]-1H-pyrazole-5-carbohydrazide], the IC50 was determined as 1.7 µM. This IC50 is about 2.4-fold lower than that of the compound before.

For the compound `O=NCc1cccn1-c1cccc(C(=O)O)c1` [3-[2-(hydroximinomethyl)pyrrol-1-yl]benzoic acid], the midpoint of inhibition, the IC50, lay at 3.09 µM.

In the case of `Cc1ccc(OCC(=O)N/N=C/c2ccc(O)c([N+](=O)[O-])c2)c([N+](=O)[O-])c1` [SMR000312577], it took 8.42 µM to reach half-maximal inhibition (IC50). This IC50 is about 2.7-fold higher than that of the compound before. For `O=C(N/N=C/C1C=C(Cl)C=C([N+](=O)[O-])C1=O)c1cc(-c2ccccn2)nc2ccccc12` (stereo unspecified) [MLS000773704], the IC50 stood at 1.85 µM. In turn, `Cc1ccc(OCC(=O)NN=C/C=C/c2ccco2)cc1` [MLS000563872] had an IC50 of 6 µM. With `O=C(CCCC(=O)Nc1cccc(Br)c1)N/N=C/C1C=C([N+](=O)[O-])C=CC1=O` (stereo unspecified), the IC50 stood at 6.26 µM.

On to `C=CC1=C(C(=O)O)N2C(=O)[C@@H](NC(=O)C(N=O)c3csc(N)n3)[C@H]2SC1` (stereo partly drawn) [(6R,7R)-7-[[2-(2-azanyl-1,3-thiazol-4-yl)-2-hydroxyimino-ethanoyl]amino]-3-ethenyl-8-oxidanylidene-5-thia-1-azabicyclo[4.2.0]oct-2-ene-2-carboxylic acid], for which the IC50 stood at 4.48 µM. Compound `CCOc1cc(CN=Nc2nc(O)c(CC(=O)O)s2)ccc1OCc1ccc(Cl)cc1Cl` [2-[2-[(N''E)-N''-[4-(2,4-dichlorobenzyl)oxy-3-ethoxy-benzylidene]hydrazino]-4-keto-2-thiazolin-5-yl]acetic acid] came in with a 50% inhibitory concentration (IC50) of 2.32 µM. Compound `COC(=O)C1C(COc2ccccc2)=NC(=O)NC1c1ccc2ccccc2c1` (stereo unspecified) showed an IC50 of 13.8 µM. This IC50 is about 5.9-fold higher than that of the compound before.

With `Cc1ccc(-c2csc(-c3c(O)cn(NC(=O)c4ccco4)c3N)n2)cc1` [SMR000363171], the IC50 came out at 12.9 µM.
